How the values were obtained:
[1] = target: T1, NUAK family SNF1-like kinase 2 (Homo sapiens) (UniProt Q9H093); assay: Inhibition of human SNARK/NUAK2 using KKKVSRSGLYRSPSMPENLNRPR as substrate at 1 uM in presence of 32P-ATP by Hotspot assay relative to control; values are per cent of control
T1 sequence (whole entry): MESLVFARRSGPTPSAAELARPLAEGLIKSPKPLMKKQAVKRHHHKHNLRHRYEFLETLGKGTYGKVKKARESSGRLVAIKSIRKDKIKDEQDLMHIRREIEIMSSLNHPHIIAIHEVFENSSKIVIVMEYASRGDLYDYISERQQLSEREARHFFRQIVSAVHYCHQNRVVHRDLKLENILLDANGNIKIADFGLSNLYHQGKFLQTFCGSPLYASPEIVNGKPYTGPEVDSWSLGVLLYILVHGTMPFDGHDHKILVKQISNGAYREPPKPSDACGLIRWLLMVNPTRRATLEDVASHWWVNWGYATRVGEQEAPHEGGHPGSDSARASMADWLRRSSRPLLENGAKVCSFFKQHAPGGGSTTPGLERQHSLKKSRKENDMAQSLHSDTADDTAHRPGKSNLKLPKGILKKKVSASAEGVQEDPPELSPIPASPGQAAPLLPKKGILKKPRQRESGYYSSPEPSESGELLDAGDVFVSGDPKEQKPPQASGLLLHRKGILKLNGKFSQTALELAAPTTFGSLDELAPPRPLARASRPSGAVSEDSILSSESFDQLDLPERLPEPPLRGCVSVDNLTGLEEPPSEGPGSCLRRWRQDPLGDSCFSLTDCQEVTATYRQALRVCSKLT

[2] = target: T2, cGMP-dependent protein kinase 1 (Homo sapiens) (UniProt Q13976); assay: Inhibition of human PKG1a using LRRASLG as substrate at 1 uM in presence of 32P-ATP by Hotspot assay relative to control; values are per cent of control
T2 sequence (whole entry): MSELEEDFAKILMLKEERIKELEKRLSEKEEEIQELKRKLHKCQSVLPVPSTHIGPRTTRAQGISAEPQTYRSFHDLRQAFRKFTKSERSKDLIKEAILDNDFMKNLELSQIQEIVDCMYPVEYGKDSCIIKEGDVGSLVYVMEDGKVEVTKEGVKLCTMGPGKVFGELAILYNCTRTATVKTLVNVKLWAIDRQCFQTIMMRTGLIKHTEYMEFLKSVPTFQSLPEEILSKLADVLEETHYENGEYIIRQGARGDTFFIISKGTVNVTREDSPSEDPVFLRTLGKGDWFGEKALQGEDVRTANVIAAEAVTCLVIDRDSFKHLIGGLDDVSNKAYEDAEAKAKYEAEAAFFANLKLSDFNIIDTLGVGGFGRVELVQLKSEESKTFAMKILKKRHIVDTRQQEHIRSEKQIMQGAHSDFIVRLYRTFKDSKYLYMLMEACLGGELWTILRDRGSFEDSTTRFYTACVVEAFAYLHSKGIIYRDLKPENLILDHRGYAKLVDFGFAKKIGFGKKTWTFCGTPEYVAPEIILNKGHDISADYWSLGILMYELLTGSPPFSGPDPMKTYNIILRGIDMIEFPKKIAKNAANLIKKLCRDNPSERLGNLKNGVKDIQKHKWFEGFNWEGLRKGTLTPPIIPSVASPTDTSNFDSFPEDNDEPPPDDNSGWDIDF

[3] = target: Ribosomal protein S6 kinase alpha-2 (Homo sapiens) (UniProt Q15349); assay: Inhibition of human RSK3 using KKLNRTLSVA as substrate at 1 uM in presence of 32P-ATP by Hotspot assay relative to control; values are per cent of control
[4] = target: Serine/threonine-protein kinase PAK 6 (Homo sapiens) (UniProt Q9NQU5); assay: Inhibition of human PAK6 using RRRLSFAEPG as substrate at 1 uM in presence of 32P-ATP by Hotspot assay relative to control; values are per cent of control
[5] = target: T3, Rhodopsin kinase GRK7 (Homo sapiens) (UniProt Q8WTQ7); assay: Inhibition of human GRK7 using casein as substrate at 1 uM in presence of 32P-ATP by Hotspot assay relative to control; values are per cent of control
T3 sequence (whole entry): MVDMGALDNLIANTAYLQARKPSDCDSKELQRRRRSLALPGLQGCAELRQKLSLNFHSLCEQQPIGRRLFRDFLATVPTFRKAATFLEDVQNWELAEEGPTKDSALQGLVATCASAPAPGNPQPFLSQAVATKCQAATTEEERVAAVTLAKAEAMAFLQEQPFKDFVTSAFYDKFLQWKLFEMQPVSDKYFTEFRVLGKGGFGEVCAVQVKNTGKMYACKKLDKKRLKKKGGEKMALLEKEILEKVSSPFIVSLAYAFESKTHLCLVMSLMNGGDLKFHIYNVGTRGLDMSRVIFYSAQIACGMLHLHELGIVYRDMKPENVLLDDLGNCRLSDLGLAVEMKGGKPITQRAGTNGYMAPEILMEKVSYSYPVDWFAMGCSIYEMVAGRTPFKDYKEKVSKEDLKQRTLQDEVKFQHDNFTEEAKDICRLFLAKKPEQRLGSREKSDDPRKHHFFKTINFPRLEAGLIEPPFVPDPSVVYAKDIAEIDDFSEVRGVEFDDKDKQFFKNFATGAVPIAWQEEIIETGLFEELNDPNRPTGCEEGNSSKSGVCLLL

Sequence of Serine/threonine-protein kinase PAK 6 (Homo sapiens) (Q9NQU5 whole entry, looked up): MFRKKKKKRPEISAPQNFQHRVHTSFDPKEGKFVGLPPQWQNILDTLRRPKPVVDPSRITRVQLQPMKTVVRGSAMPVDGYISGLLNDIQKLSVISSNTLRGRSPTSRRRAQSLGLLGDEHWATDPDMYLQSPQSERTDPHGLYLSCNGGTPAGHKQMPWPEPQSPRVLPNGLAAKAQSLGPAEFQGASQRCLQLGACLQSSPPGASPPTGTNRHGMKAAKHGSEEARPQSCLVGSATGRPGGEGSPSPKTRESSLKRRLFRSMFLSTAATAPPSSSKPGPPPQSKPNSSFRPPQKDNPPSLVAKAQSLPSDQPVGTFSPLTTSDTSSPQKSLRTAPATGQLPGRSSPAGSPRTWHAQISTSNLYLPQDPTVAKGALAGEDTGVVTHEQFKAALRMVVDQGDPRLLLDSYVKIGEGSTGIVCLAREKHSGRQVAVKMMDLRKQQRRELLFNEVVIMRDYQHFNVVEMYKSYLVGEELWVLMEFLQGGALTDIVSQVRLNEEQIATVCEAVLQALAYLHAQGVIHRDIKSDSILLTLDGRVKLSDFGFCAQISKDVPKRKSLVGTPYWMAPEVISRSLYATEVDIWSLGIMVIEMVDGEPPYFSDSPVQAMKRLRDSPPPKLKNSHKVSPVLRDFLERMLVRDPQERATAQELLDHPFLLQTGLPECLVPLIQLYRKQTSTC
Sequence of Ribosomal protein S6 kinase alpha-2 (Homo sapiens) (Q15349 whole entry): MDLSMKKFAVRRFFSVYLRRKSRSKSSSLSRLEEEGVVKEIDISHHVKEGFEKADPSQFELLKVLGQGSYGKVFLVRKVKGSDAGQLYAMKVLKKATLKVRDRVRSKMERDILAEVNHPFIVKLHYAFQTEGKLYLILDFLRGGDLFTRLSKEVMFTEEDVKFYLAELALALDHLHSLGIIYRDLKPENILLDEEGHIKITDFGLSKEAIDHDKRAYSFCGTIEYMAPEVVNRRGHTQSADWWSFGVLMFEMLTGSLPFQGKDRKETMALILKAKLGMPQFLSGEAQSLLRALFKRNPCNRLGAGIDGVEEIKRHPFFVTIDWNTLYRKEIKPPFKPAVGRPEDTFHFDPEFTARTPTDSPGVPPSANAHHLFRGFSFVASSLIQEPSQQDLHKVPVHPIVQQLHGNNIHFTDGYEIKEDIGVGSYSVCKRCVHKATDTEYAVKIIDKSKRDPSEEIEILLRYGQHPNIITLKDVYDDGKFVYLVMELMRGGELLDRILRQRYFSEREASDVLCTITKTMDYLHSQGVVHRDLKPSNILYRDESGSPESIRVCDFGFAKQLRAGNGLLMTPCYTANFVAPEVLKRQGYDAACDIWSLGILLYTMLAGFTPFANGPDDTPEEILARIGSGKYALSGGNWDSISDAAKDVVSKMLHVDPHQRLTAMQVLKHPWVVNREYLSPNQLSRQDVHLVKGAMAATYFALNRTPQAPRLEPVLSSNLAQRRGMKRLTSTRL

Compound | residual activity [1] [%] | residual activity [2] [%] | residual activity [3] [%] | residual activity [4] [%] | residual activity [5] [%]
Cc1cc(-c2cnc(N)c3c(-c4ccc5scnc5c4)csc23)n(C)n1 | 95.9 | 69.9 | 103 | 106 | 100
CC(C)S(=O)(=O)c1ccc2nccc(Nc3ccc4scnc4c3)c2c1 | 108 | 90.4 | 96 | 98.5 | 101
CNC(=O)c1ccc2c(c1)ncn2-c1ccc(CC(=O)OC(C)(C)C)cc1 | 89.7 | 90.1 | 97.1 | 89.9 | 92.4

— ChEMBL document CHEMBL5649166, “RIP3 induces apoptosis independent of pronecrotic kinase activity” (Mol Cell, 2014)
